Test results as given in PMC8513058, “Synthesis and Evaluation of Novel 1,2,6-Thiadiazinone Kinase Inhibitors as Potent Inhibitors of Solid Tumors” (Molecules, 2021).

How the values were obtained:
MCF-7 cells = assay: Cancer cell line viability screen (alamarBlue), MCF7; conditions: Homo sapiens, MCF7, 72 h, read-out: IC50 MCF7
Method: (§1) This included pancreatic, bladder, prostate, breast, chordoma, and lung cancer cell lines while a skin fibroblast cell line was used as a toxicity control [33, 34, 35, 36].
(§2) DU145 and MCF-7 cells were cultured in MEM medium supplemented with 10% FBS and 1% penicillin/streptomycin. […] Cells were seeded in 384-well plates and were treated with test compound in quadruplicate 24 h after plating. Cell viability was assessed at 72 h using alamarBlue (ThermoFisher, Waltham, MA, USA). […] IC50 values were determined by nonlinear regression using GraphPad PrismTM software (GraphPad Software Inc., San Diego, CA, US).

U-CH1 cells = assay: Cancer cell line viability screen (alamarBlue), UCH1; conditions: UCH1, 72 h, read-out: IC50 UCH1
Method: as §1
(§3) Cells were seeded in 384-well plates and were treated with test compound in quadruplicate 24 h after plating. Cell viability was assessed at 72 h using alamarBlue (ThermoFisher, Waltham, MA, USA). […] IC50 values were determined by nonlinear regression using GraphPad PrismTM software (GraphPad Software Inc., San Diego, CA, US).

5637 cells = assay: Cancer cell line viability screen (alamarBlue), 5637; conditions: 72 h, read-out: IC50 5637
Method: as §1, §2

WS-1 cell line = assay: Toxicity control viability screen (alamarBlue), WS-1 skin fibroblasts; conditions: for IC50: WS1, 72 h, read-out: IC50 WS-1
Method: as §1, §2

DU145 cells = assay: Cancer cell line viability screen (alamarBlue), DU145; conditions: Homo sapiens, DU-145, 72 h, read-out: IC50 DU145
Method: as §1, §2

A-431 cells = assay: Cancer cell line viability screen (alamarBlue), A431; conditions: Homo sapiens, A-431, 72 h, read-out: IC50 A431
Method: as §1, §3

[1] = system: kinases in SUM159 cell lysates; assay: MIBS kinome profiling (MIB-MS competitive displacement); format: binding; conditions: 1 μM compound vs DMSO, SUM159 lysate; for kinome profile: 350-400 kinases detected
Method: We then assessed the kinome profile of thiadiazinones 16, 17, and 26 all at 1 μM using a multiplexed kinase inhibitor bead set and quantitative mass spectrometry for detection of kinase peptides (MIB-MS). The MIB-MS proteomics was able to detect between 350 and 400 kinases in the cell lysates and competitive displacement of specific kinases from the beads was used to determine the kinome profile of the thiadiazinone kinase inhibitors.
Previously described. Briefly, multiplexed inhibitor beads (MIBS) affinity chromatography/MS analysis: SUM159 cells were cultured in a 50:50 mixture of DMEM and Nutrient Mixture F-12 medium (Gibco) supplemented with 5% fetal bovine serum, 1% anti/anti, […] insulin, and […] hydrocortisone. Cells were maintained at 37 °C in a humidified 5% CO2 atmosphere. SUM159 cells were grown to 80% confluency, washed twice with PBS, and harvested by scraping cells in lysis buffer [50 mM HEPES, pH 7.5, 150 mM NaCl, 0.5% Triton X-100, 1 mM EDTA, 1 mM EGTA, 10 mM NaF, 2.5 mM Na3VO4, complete protease inhibitor cocktail (Roche, Basel, Switzerland), phosphatase inhibitor cocktail 2, and 3 (Sigma, St. Louis, MO, USA)]. Lysates were sonicated then clarified by centrifugation at 14000 V g for 15 min at 4 °C. Lysate was then filtered through a […] syringe filter and frozen at −80 °C until use. Protein concentration was quantified using a Bradford assay the day of the experiment. DMSO or the indicated concentration of 16, 17, and 26 were added to lysate containing 4 mg of total protein. Lysates were vortexed briefly then incubated for 30 min on ice. Kinases were affinity purified as previously described. Briefly, lysates were diluted to 1.33 mg mL^−1 with lysis buffer then NaCl concentration brought to 1 M.
Diluted lysates were passed over a mixture of […] of settled beads of each of the following inhibitors conjugated to ECH Sepharose beads: Purvalanol B, PP58, VI-16832, UNC21474A, UNC8088A, and […] of settled beads conjugated to CTx-0294885 and VI-16832 [69]. The kinase inhibitor–bead conjugates were previously equilibrated in high-salt buffer (50 mM HEPES pH 7.5, 1M NaCl, 0.5% Triton X-100, 1 mM EDTA, and 1 mM EGTA). MIBs columns were sequentially washed with high-salt buffer, low-salt buffer (50 mm HEPES pH 7.5, 150 mM NaCl, 0.5% Triton X-100, 1 mM EDTA, and 1 mM EGTA), and SDS buffer (50 mm HEPES pH 7.5, 150 mm NaCl, 0.5% Triton X-100, 1 mm EDTA, 1 mm EGTA, and 0.1% SDS). Proteins were eluted by boiling samples in elution buffer (100 mM Tris·HCl pH 6.8, 0.5% SDS, and 1% β-mercaptoethanol) for 15 min twice. Dithiothreitol (DTT) was added to a final concentration of 5 mm and samples were incubated at 60 °C for 25 min. Samples were then cooled to room temperature on ice and alkylated by adding iodoacetamide to a final concentration of 20 mm for 30 min in the dark at room temperature. Samples were then concentrated in 10K Amicon Ultra centrifugal concentrators (Millipore, Burlington, MA, USA) followed by methanol and chloroform precipitation of proteins. The final protein pellets were re-suspended in 50 mM HEPES pH 8.0 and incubated with trypsin at 37 °C overnight. Residual detergent was removed by three sequential ethyl acetate extractions then desalted using Pierce C18 spin columns (Thermo Scientific, Waltham, MA, USA) according to the manufacturer’s protocol.

U-CH2 cells = assay: Cancer cell line viability screen (alamarBlue), UCH2; conditions: UCH2, 72 h, read-out: IC50 UCH2
Method: as §1, §3

PANC-1 cells = assay: Cancer cell line viability screen (alamarBlue), PANC1; conditions: Homo sapiens, PANC-1, 72 h, read-out: IC50 PANC1
Method: as §1, §2

[2] = set-up: method as in PMID 29783765; conditions: previously assessed; cited from earlier work

Compound	IC50 (MCF-7 cells)	IC50 (U-CH1 cells)	IC50 (5637 cells)	IC50 (WS-1 cell line)	melting point	IC50 (DU145 cells)	IC50 (A-431 cells)	kinases competitively displaced from the beads (hits) [1]	kinome profile [1]	IC50 (U-CH2 cells)	IC50 (PANC-1 cells)	IC50 WS-1 (WS-1 cell line; skin fibroblast cell line, toxicity control, viability at 72 h, alamarBlue, average of 4 independent experiments)	stability [2]
Cc1ccc(Nc2nsnc(-c3ccnc4[nH]ccc34)c2=O)cc1O [Compound 17, 3-[(3-Hydroxy-4-methylphenyl)amino]-5-(1H-pyrrolo[2,3-b]pyridin-4-yl)-4H-1,2,6-thiadiazin-4-one]	14 µM	> 100 µM	2.1 µM	> 100 µM	292 to 293 °C	23 µM	> 100 µM	AKT2, MAP2K4, MAP2K1, and STK35 being just below the threshold	narrow spectrum kinome profile	> 100 µM	> 100 µM		
O=c1c(Nc2ccc3[nH]ncc3c2)nsnc1-c1cccc(O)c1 [Compound 23, 5-(3-Hydroxyphenyl)-3-[(1H-indazol-5-yl)amino]-4H-1,2,6-thiadiazin-4-one]	92 µM	71 µM	> 100 µM	> 100 µM	282 to 283 °C	84 µM	> 100 µM			> 100 µM	> 100 µM		
COc1cccc(-c2nsnc(Nc3ccc4[nH]ncc4c3)c2=O)c1 [Compound 25, 3-[(1H-Indazol-5-yl)amino]-5-(3-methoxyphenyl)-4H-1,2,6-thiadiazin-4-one]	38 µM	52 µM	13 µM	71 µM	220 to 221 °C	> 100 µM	> 100 µM			99 µM	> 100 µM		
CN1CCN(c2nsnc(-c3ccnc4[nH]ccc34)c2=O)CC1 [Compound 20, 3-(4-Methylpiperazin-1-yl)-5-(1H-pyrrolo[2,3-b]pyridin-4-yl)-4H-1,2,6-thiadiazin-4-one]	> 100 µM		> 100 µM		195 to 196 °C	> 100 µM					> 100 µM		
Cc1ccc(O)cc1-c1nsnc(Nc2ccc3[nH]ncc3c2)c1=O [Compound 24, 5-(5-Hydroxy-2-methylphenyl)-3-[(1H-indazol-5-yl)amino]-4H-1,2,6-thiadiazin-4-one]	13 µM	67 µM	> 100 µM	> 100 µM	268 to 269 °C	15 µM	> 100 µM			> 100 µM	26 µM	no toxicity	
Cc1ccc(O)cc1Nc1nsnc(-c2ccnc3[nH]ccc23)c1=O [Compound 18, 3-[(5-Hydroxy-2-methylphenyl)amino]-5-(1H-pyrrolo[2,3-b]pyridin-4-yl)-4H-1,2,6-thiadiazin-4-one]	> 100 µM	> 100 µM	55 µM	> 100 µM	304 to 305 °C	> 100 µM	> 100 µM			> 100 µM	> 100 µM		
COc1cccc(Nc2nsnc(-c3ccnc4[nH]ccc34)c2=O)c1 [Compound 15, 3-[(3-Methoxyphenyl)amino]-5-(1H-pyrrolo[2,3-b]pyridin-4-yl)-4H-1,2,6-thiadiazin-4-one]	> 100 µM	67 µM	15 µM	> 100 µM	257 to 258 °C	> 100 µM	> 100 µM			> 100 µM	> 100 µM		
CC(=O)c1cccc(Nc2nsnc(-c3ccnc4[nH]ccc34)c2=O)c1 [Compound 14, 3-[(3-Acetylphenyl)amino]-5-(1H-pyrrolo[2,3-b]pyridin-4-yl)-4H-1,2,6-thiadiazin-4-one]	> 100 µM	58 µM	15 µM	92 µM	271 to 273 °C	> 100 µM	> 100 µM			> 100 µM	> 100 µM		
O=c1c(Nc2ccc3[nH]ncc3c2)nsnc1-c1ccnc(F)c1 [Compound 26, 5-(2-Fluoropyridin-4-yl)-3-[(1H-indazol-5-yl)amino]-4H-1,2,6-thiadiazin-4-one]	50 µM	84 µM	8.4 µM	> 100 µM	280 °C (dec.)	5.7 µM	> 100 µM	showing affinity for ACVR1B, ACVR2A, and STK35	narrow spectrum kinome profile but was a weak inhibitor	> 100 µM	> 100 µM		
O=c1c(-c2ccnc3[nH]ccc23)nsnc1N1CCOCC1 [Compound 19, 3-Morpholino-5-(1H-pyrrolo[2,3-b]pyridin-4-yl)-4H-1,2,6-thiadiazin-4-one]	46 µM	> 100 µM	> 100 µM	> 100 µM	256 to 257 °C	14 µM	> 100 µM			> 100 µM	11 µM		
CN1CCN(c2nsnc(Nc3ccnc4[nH]ccc34)c2=O)CC1 [Compound 21, 5-(4-Methylpiperazin-1-yl)-3-[(1H-pyrrolo[2,3-b]pyridin-4-yl)amino]-4H-1,2,6-thiadiazin-4-one]	> 100 µM	97 µM	> 100 µM	> 100 µM	286 to 287 °C	51 µM	> 100 µM			> 100 µM	> 100 µM		
O=c1c(Nc2ccccc2)nsnc1Nc1ccccc1 [3,5-Bis(phenylamino)-4H-1,2,6-thiadiazin-4-one]													stable to neutral, acidic, or slightly basic aqueous conditions, the presence of amine or thiol nucleophiles, and oxidizing and reducing conditions
CN1CCN(c2nsnc(Nc3ccc4[nH]ncc4c3)c2=O)CC1 [Compound 22, 3-[(1H-Indazol-5-yl)amino]-5-(4-methylpiperazin-1-yl)-4H-1,2,6-thiadiazin-4-one]	25 µM	> 100 µM	> 100 µM	24 µM	262 to 263 °C	50 µM	> 100 µM			> 100 µM	> 100 µM		
